The test system of data set [1] is 3D renal tubule model. It counts as cell-based, human. The text has this:
To reduce the thickness and cellularity of the interstitial layer, the cell ratio was changed to 50% fibroblasts/50% HUVEC the concentration of the cells was 1.25×10^8 cells/mL. The interstitial layer of the renal proximal tubule model is composed of renal fibroblasts and HUVECs in Novogel® 2.0. […] E-cadherin (green) at the lateral membranes between RPTECs corresponds to tight junctions (FIGS. 9A, B and C). Further, the basement membrane corresponding to the interstitial layer produces collagen (FIGS. 9A and B; stained with red). H & E staining is shown (FIG. 10A), and brush borders are indicated (FIG. 11A, arrows). Trichrome staining indicates collagen secretion (FIGS. 10B, blue and 11B, arrows), and CD31 staining indicates the presence of HUVEC networks (FIG. 12, asterisks). […] As a positive control, hTERT-RPTEC cells cultured as a monolayer in 2D were assessed. As a negative control, bioprinted renal interstitial tissues without epithelium were also assayed to verify that the detected GGT activity was epithelial-specific. At culture day 3, 10, 14, 21, or 28, 2D hTERT-RPTEC, 3D interstitium tissues, or 3D bioprinted tubule tissues were homogenized and assessed for functional GGT enzymatic activity using a colorimetric assay available from Sigma-Aldrich. […]

In data set [2] the test system is 3D renal tubule model (interstitial tissue and epithelial tissue). It counts as cell-based, human.
The test system of data set [3] is interstitial tissue alone.
For data set [4], the system named is epithelial layer comprising primary cells (070615-RPTEC). Kind of data set: GGT activity, renal tubule model with primary epithelial layer. In kind it is cell-based, human. Particulars: primary cells (070615-RPTEC) compared with hTERT-RPTEC; FIG. 23B.
Description: To assess the maturity and function of the epithelial component of the 3D bioprinted tubule model, tissues were homogenized and assayed for gamma glutamyl-transferase (GGT) activity. […] As a positive control, hTERT-RPTEC cells cultured as a monolayer in 2D were assessed. […] At culture day 3, 10, 14, 21, or 28, 2D hTERT-RPTEC, 3D interstitium tissues, or 3D bioprinted tubule tissues were homogenized and assessed for functional GGT enzymatic activity using a colorimetric assay available from Sigma-Aldrich.
Data set [5] relates to 3D renal tubule model. Kind of data set: histology of treated 3D renal tubule models. To be noted: 50 ng/mL TGFβ; FIG. 22D. In kind it is cell-based, human.

Take `C[C@@H]1[C@H](O)[C@@H](C)/C=C/C=C/C=C/C=C/C=C/C=C/C=C/[C@H](O[C@@H]2O[C@H](C)[C@@H](O)[C@H](N)[C@@H]2O)C[C@@H]2O[C@](O)(C[C@@H](O)C[C@@H](O)[C@H](O)CC[C@@H](O)C[C@@H](O)CC(=O)O[C@H]1C)C[C@H](O)[C@H]2C(=O)O` [AmpB, amphotericin B]: the GGT activity result in data set [1] is “dose dependent reduction in GGT activity”. Moreover, the results for the “toxicity by alamarBlue assay” value in data set [2] and in data set [3] were “dose dependent cytotoxicity” and “resistant”, respectively.
Consider `N.N.[Cl][Pt][Cl]` [cisplatin], for which, in data set [1], the GGT activity result is on record as “dose dependent reduction in GGT activity”. For the same compound, in data set [4], the “sensitivity in the GGT assay, primary versus immortalized cells” value is given as “enhanced sensitivity”.
In the case of “TGFβ: listed among common cytotoxic agents; treatment at 50 ng/mL increased fibrosis”, in data set [5], the “Masson's trichrome staining histology (fibrosis)” value was “increase in fibrosis without the overt cell death”.

(Values after patent publication US11867689B2, “Engineered renal tissues, arrays thereof, and methods of making the same” (Organovo, Inc., priority 2014, dated 2024).)
